4 molecules from patent US20250257034A1, “INDOLE DERIVATIVES AS SEROTONERGIC AGENTS USEFUL FOR THE TREATMENT OF DISORDERS RELATED THERETO” (priority 2023, published 2025) can be followed below.

In one assay the target is human 5-HT2A receptor (Homo sapiens, UniProt P28223). Briefly: h-5HT2A β-arrestin reporter assay in U2OS cells. The class given is cell-based. Details: expressed in transfected cells. How it is done: (§1) Compound potency (EC50) and efficacy (Max response) against the human 5-HT2A receptor in stably transfected U2OS cells was determined in a G protein-coupled receptors (GPCR) cell based p-arrestin reporter assay. Cells were seeded in a total volume of 20 μL into white walled, 384-well microplates and incubated at 37° C. overnight before analysis. For agonist determination, cells were incubated with sample to induce response. Intermediate dilution of sample stocks was performed to generate 5×sample in assay buffer. 5 μL of 5×sample was added to cells and incubated at 37° C. for 120 minutes. Final assay vehicle concentration was 1%.
as §1, with “5-HT2Areceptor” for “5-HT2A receptor”, “GPCR” for “G protein-coupled receptors (GPCR)”, “P-arrestin” for “p-arrestin”

In the next assay the target is T1, human 5-HT1A receptor (Homo sapiens, UniProt P08908).
T1 sequence (P08908 1-422): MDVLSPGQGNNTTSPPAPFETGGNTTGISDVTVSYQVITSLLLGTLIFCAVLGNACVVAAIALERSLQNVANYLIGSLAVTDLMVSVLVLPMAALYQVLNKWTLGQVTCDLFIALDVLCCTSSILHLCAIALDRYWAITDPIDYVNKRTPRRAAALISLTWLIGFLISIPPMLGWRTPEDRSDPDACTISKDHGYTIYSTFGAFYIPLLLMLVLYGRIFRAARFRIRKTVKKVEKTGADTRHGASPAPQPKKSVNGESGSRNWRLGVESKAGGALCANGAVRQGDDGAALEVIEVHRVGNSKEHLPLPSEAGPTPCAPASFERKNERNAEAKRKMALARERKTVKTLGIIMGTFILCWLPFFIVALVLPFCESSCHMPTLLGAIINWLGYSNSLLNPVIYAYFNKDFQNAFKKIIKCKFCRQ
Briefly: Human 5HT1A cAMP assay in CHO-K1 cells. The class given is cell-based. Also noted: expressed in transfected cells. On the procedure:
Compound potency (EC50) and efficacy (Max response) against the human 5-HT1A receptor in stably transfected CHO-K1 cells was determined in a GPCR cell-based cAMP assay.
Cells were seeded in a total volume of 20 μL into white walled, 384-well microplates and incubated at 37° C. overnight before analysis. Prior to testing, cell plating media was exchanged with 10 μL of Assay buffer (HBSS+10 mM HE P E S). Briefly, intermediate dilution of sample stocks was performed to generate 4×sample in assay buffer. 5 μL of 4×sample+5 μL of 4×forskolin was added to cells and incubated at 37° C. for 30 minutes. Final assay vehicle concentration was 1%. The results are expressed as a percent efficacy relative to the maximum response of the control ligand (serotonin) in Table 27.
Cells were seeded in a total volume of 20 μL into white walled, 384-well microplates and incubated at 37° C. overnight before analysis. Prior to testing, cell plating media was exchanged with 10 μL of Assay buffer (HBSS+10 mM HEPES). Briefly, intermediate dilution of sample stocks was performed to generate 4×sample in assay buffer. 5 μL of 4×sample +5 μL of 4×forskolin was added to cells and incubated at 37° C. for 30 minutes. Final assay vehicle concentration was 1%. The results are expressed as a percent efficacy relative to the maximum response of the control ligand (serotonin) in Table 56.
For orientation: Cyclic AMP is a second messenger, typically raised through Gs and lowered through Gi signalling.

Another assay deals with T2, human 5-HT2C receptor (Homo sapiens, UniProt P28335).
T2 construct: expressed in transfected cells; host or cells: U2OS, stably transfected
T2 sequence (P28335 33-458): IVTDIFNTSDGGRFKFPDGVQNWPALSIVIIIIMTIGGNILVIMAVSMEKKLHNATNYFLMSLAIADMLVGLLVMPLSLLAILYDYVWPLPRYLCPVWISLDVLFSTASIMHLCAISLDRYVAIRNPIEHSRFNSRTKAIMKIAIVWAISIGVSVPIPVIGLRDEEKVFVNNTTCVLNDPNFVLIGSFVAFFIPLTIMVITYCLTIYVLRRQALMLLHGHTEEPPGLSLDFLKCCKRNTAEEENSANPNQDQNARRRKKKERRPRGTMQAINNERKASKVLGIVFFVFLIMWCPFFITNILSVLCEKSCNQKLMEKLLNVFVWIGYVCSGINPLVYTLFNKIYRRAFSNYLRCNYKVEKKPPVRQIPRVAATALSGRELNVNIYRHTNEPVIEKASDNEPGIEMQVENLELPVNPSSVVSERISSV
Briefly: cell-based.

In a further assay the target is 5-HT2B receptor (Homo sapiens, UniProt P41595). The experiment in a line: h-5HT2B FLIPR calcium mobilization assay in HEK293 cells. Details: expressed in transfected cells; host or cells: HEK293, stably transfected. The assay is classed as cell-based. On the procedure:
Compound potency (EC50) and efficacy (Max response) against the human 5-HT2B receptor in stably transfected HEK293 cells was determined in a calcium mobilization-based assay.
Cells were seeded in a total volume of 20 μL into white walled, 384-well microplates and incubated at 37° C. overnight. Prior to testing, cell plating media was exchanged with 20 μL of Dye Loading buffer (HBSS+20 mM HEPES containing 1×Dye, 1×Additive A and 2.5 mM Probenecid). Plates were incubated at 37° C. for 45 mins followed by 15 mins at room temperature.
10 μl of assay buffer (HBSS+20 mM HEPES) was added to cells. Intermediate dilution of sample stocks was performed to generate 4×sample in assay buffer. Assay plates, compound plates were loaded into F LIP R instrument. 10 μL of sample was added using F LIP R onboard robotics after 5 seconds of starting calcium measurement. Final assay vehicle concentration was 1%. The results are expressed as a percent efficacy relative to the maximum response of the control ligand (serotonin) in Table 28.
10 μl of assay buffer (HBSS+20 mM HEPES) was added to cells. Intermediate dilution of sample stocks was performed to generate 4×sample in assay buffer. Assay plates, compound plates were loaded into F LIP R instrument. 10 μL of sample was added using F LIP R onboard robotics after 5 seconds of starting calcium measurement. Final assay vehicle concentration was 1%. The results are expressed as a percent efficacy relative to the maximum response of the control ligand (serotonin) in Table 57.
For orientation: Calcium assays in cells follow changes in intracellular calcium, usually with a dye or a luminescent sensor.

Setting [1] is: relative to maximum response of control ligand serotonin.
Where [2] appears, read: β-arrestin reporter, U2OS cells.
[3] abbreviates: relative to maximum response of serotonin (Table 27).
Setting [4] is: relative to maximum response of serotonin (Table 56).
[5] abbreviates: FLIPR calcium mobilization, U2OS cells.
The mark [6] stands for this setting: calcium mobilization, U2OS cells (Table 30).
Where [7] appears, read: relative to maximum response of serotonin (Table 30).
Where [8] appears, read: relative to maximum response of serotonin (Table 28).

A word on the EC50: it is the concentration at which the effect is half-maximal.

Where two headings read alike, the source gives them in different places. A value given as a limit tells only on which side of the number the result lay.

5-HT2B receptor, sequence (P41595 whole entry): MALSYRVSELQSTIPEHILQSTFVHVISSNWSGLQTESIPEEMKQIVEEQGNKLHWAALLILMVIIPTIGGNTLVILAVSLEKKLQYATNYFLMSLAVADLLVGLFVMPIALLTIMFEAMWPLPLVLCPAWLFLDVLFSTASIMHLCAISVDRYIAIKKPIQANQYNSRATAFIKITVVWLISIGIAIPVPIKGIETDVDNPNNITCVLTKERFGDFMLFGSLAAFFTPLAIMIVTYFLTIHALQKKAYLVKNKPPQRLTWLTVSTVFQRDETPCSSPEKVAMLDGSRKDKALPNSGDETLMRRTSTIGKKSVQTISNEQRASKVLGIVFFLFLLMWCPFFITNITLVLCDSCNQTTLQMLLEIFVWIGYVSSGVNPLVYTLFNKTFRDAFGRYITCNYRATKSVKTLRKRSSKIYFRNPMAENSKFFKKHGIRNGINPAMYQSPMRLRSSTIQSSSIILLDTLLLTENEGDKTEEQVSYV
human 5-HT2A receptor, sequence (P28223 whole entry): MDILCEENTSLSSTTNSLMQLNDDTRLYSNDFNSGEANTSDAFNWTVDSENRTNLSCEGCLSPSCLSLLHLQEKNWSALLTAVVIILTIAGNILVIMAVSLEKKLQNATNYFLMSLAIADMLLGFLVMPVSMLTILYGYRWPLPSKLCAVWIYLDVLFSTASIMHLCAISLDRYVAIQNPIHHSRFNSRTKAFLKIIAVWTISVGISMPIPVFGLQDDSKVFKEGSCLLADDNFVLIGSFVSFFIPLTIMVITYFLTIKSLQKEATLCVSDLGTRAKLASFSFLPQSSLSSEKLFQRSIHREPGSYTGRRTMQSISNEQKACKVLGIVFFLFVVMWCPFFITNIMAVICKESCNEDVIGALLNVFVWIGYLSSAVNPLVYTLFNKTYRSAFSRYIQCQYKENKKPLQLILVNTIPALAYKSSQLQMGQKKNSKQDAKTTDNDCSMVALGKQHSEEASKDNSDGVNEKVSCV

For `CN(C)CCc1c[nH]c2ccccc12` [DMT], the “Emax (% of serotonin)” value is 38.86 % of serotonin on human 5-HT2A receptor (setting [1]), 38.86 % of serotonin at human 5-HT2A receptor (setting [2]), 87.1 % of serotonin at human 5-HT1A receptor (setting [3]) and 87.1 % of serotonin at human 5-HT1A receptor (setting [4]). Moreover, the EC50 stood at 114 nM on human 5-HT2A receptor (β-arrestin reporter, U2OS cells, 120 min, read-out: EC50) and 114 nM on human 5-HT2A receptor (β-arrestin reporter, U2OS cells, read-out: EC50).

On to `COc1ccc2[nH]cc(CCN3CC[C@H](OC(F)F)C3)c2c1` [(S) I-67, (S)-3-(2-(3-(Difluoromethoxy)pyrrolidin-1-yl)ethyl)-5-methoxy-1H-indole], for which the concentration giving a half-maximal response (EC50) is 2690 nM on human 5-HT2C receptor (setting [5]), 2070 nM on human 5-HT2A receptor, 11.6 nM on human 5-HT1A receptor and over 10000 nM at 5-HT2B receptor. Besides, the “Emax (% of serotonin)” value on human 5-HT2C receptor (setting [5]) is 75.3 % of serotonin; on human 5-HT2A receptor (setting [2]), 38.02 % of serotonin; at human 5-HT1A receptor (setting [4]) it was 98.47 % of serotonin; at 5-HT2B receptor (relative to maximum response of serotonin (Table 57)), 4.23 % of serotonin.

As for `[2H]C([2H])([2H])N(CCc1c[nH]c2ccc(SC)cc12)C([2H])([2H])[2H]` [Compound I-1, N,N-Bis(methyl-d3)-2-(5-(methylthio)-1H-indol-3-yl)ethan-1-amine], the concentration giving a half-maximal response (EC50) is 2.37 nM at human 5-HT2C receptor (setting [6]), 58.4 nM at human 5-HT2A receptor, 11.1 nM at human 5-HT1A receptor and over 10000 nM at 5-HT2B receptor. For the same molecule, the “Emax (% of serotonin)” value was 98.89 % of serotonin on human 5-HT2C receptor (setting [7]), 74 % of serotonin at human 5-HT2A receptor (setting [1]), 96.18 % of serotonin on human 5-HT1A receptor (setting [3]) and 19.8 % of serotonin on 5-HT2B receptor (setting [8]).

`CCN(C)CCc1c[nH]c2ccc(SC)cc12` [Compound I-13, N-Ethyl-N-methyl-2-(5-(methylthio)-1H-indol-3-yl)ethan-1-amine]: the concentration for a half-maximal effect (EC50) on human 5-HT2C receptor (setting [6]) is 2.89 nM; at human 5-HT2A receptor it was 59.5 nM; on human 5-HT1A receptor, 9.06 nM; on 5-HT2B receptor, over 10000 nM. For the same molecule, the “Emax (% of serotonin)” value at human 5-HT2C receptor (setting [7]) was 92.77 % of serotonin; on human 5-HT2A receptor (setting [1]), 75.27 % of serotonin; at human 5-HT1A receptor (setting [3]) it was 100.52 % of serotonin; at 5-HT2B receptor (setting [8]), 21.04 % of serotonin.
